Assay results taken from patent publication US20260132132A1, “3A,4,5,6-TETRAHYDRO-1 H-PYRAZOLO[3,4-C]PYRIDIN-7(7AH)-ONE DERIVATIVES AS FACTOR XIIA INHIBITORS” (KALVISTA PHARMACEUTICALS LIMITED, priority 2022, published 2026).

Columns and labels:
[1] = target: T1, Human Factor XIIa (hFXIIa) (Homo sapiens, UniProt P00748); assay: Determination of Human Factor XIIa (hFXIIa) inhibition, fluorogenic substrate IC50 assay; type: biochemical; settings: fluorogenic substrate H-DPro-Phe-Arg-AFC at Km, 25° C., read-out: Human FXIIa IC50
T1 construct: purchased Enzyme Research Laboratories
T1 sequence (P00748 373-615 limits assumed): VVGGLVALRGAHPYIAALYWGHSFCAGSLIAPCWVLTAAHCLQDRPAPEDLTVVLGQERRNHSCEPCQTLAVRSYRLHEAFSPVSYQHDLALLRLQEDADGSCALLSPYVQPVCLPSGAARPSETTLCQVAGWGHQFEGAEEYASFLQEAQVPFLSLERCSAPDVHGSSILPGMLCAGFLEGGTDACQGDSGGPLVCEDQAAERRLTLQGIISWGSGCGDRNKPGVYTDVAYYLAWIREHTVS
T1 sequence (P00748 20-372 partner limits assumed): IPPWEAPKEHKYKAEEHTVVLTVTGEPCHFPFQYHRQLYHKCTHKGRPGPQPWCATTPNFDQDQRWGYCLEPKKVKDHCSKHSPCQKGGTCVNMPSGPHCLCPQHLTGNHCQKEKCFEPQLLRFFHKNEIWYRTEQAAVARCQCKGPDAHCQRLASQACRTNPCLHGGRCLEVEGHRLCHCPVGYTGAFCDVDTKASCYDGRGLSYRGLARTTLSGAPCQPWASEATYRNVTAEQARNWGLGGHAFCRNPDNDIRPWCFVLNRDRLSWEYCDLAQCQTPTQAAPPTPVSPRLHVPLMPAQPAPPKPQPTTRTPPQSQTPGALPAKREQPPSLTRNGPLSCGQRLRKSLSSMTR
Protocol: Determination of Human Factor XIIa (hFXIIa) inhibition
The Km for the cleavage of the substrate by hFXIIa was determined by standard transformation of the Michaelis-Menten equation, with subsequent inhibition assays performed at substrate Km concentration.

FXa = FXa (Homo sapiens, UniProt P00742); assay: Related protease inhibition: FXa, fluorogenic substrate; type: biochemical; settings: fluorogenic substrate at Km, 25° C.; H1-H3 = % activity at 40 μM
Sequence of FXa (P00742 235-488 limits assumed): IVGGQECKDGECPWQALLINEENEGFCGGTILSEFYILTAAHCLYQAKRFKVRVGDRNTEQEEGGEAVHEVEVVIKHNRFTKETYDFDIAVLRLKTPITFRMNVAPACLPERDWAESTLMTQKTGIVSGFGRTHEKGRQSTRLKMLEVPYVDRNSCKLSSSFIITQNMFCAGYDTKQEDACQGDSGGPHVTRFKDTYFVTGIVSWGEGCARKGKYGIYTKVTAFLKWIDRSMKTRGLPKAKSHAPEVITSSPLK
Sequence of FXa (P00742 41-179 partner limits assumed): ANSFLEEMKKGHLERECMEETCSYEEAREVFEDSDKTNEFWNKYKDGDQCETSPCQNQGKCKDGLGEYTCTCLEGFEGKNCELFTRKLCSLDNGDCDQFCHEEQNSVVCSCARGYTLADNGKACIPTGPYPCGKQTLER
Protocol: Human serine protease enzyme Plasma Kallikrein, KLK1, FXa, Plasmin, Thrombin and Trypsin were assayed for enzymatic activity using an appropriate fluorogenic substrate at Km concentration, FXIa at fixed substrate concentration of 100 μM and various concentrations of the test compound.

| Structure (SMILES) | IC50 [1] [µM] | IC50 (FXa) [µM] |
| --- | --- | --- |
| CCN1CCc2cnc(N3CCc4c(C(=O)NCC5CC5)nn(-c5cccc(Cl)c5)c4C3=O)cc2C1 [Example 1117, 1-(3-Chlorophenyl)-N-(cyclopropylmethyl)-6-(6-ethyl-5,6,7,8-tetrahydro-2,6-naphthyridin-3-yl)-7-oxo-4,5,6,7-tetrahydro-1H-pyrazolo[3,4-c]pyridine-3-carboxamide] | 0.1 to 0.3 | 10 to 40 |
| CN1CCc2ccc(N3CCc4c(C(=O)NCCO)nn(-c5cccc(Cl)c5)c4C3=O)cc2C1=O [Example 1340, 1-(3-chlorophenyl)-N-(2-hydroxyethyl)-6-(2-methyl-1-oxo-1,2,3,4-tetrahydroisoquinolin-7-yl)-7-oxo-4,5,6,7-tetrahydro-1H-pyrazolo[3,4-c]pyridine-3-carboxamide] | 0.3 to 1 | > 40 |
| CN1CCc2ccc(N3CCc4c(C(=O)NCc5cc[nH]n5)nn(-c5cccc(Cl)c5)c4C3=O)cc2C1=O [Example 1245, N-((1H-pyrazol-3-yl)methyl)-1-(3-chlorophenyl)-6-(2-methyl-1-oxo-1,2,3,4-tetrahydroisoquinolin-7-yl)-7-oxo-4,5,6,7-tetrahydro-1H-pyrazolo[3,4-c]pyridine-3-carboxamide] | 0.1 to 0.3 | > 40 |
| Cc1nc2c(C(=O)NCC3CC3)nn(-c3cccc(Cl)c3)c2c(=O)n1-c1ccc2c(c1)CN(CCO)CC2 [Example 3003, 1-(3-chlorophenyl)-N-(cyclopropylmethyl)-6-(2-(2-hydroxyethyl)-1,2,3,4-tetrahydroisoquinolin-7-yl)-5-methyl-7-oxo-6,7-dihydro-1H-pyrazolo[4,3-d]pyrimidine-3-carboxamide] | 0.1 to 0.3 | > 40 |
| O=C(NCc1ccn[nH]1)c1nn(-c2cccc(Cl)c2)c2c1CCN(c1ccc3c(c1)CN(CCO)CC3)C2=O [Example 1089, N-((1H-pyrazol-5-yl)methyl)-1-(3-chlorophenyl)-6-(2-(2-hydroxyethyl)-1,2,3,4-tetrahydroisoquinolin-7-yl)-7-oxo-4,5,6,7-tetrahydro-1H-pyrazolo[3,4-c]pyridine-3-carboxamide] | 0.01 to 0.1 | 10 to 40 |
| Cc1cc(CNC(=O)c2nn(-c3cccc(Cl)c3)c3c(=O)n(-c4ccc5c(c4)C(=O)N(C)CC5)c(C)nc23)nn1C [Example 3021, 1-(3-chlorophenyl)-N-((1,5-dimethyl-1H-pyrazol-3-yl)methyl)-5-methyl-6-(2-methyl-1-oxo-1,2,3,4-tetrahydroisoquinolin-7-yl)-7-oxo-6,7-dihydro-1H-pyrazolo[4,3-d]pyrimidine-3-carboxamide] | 0.1 to 0.3 | 10 to 40 |
| Cc1cc(CNC(=O)c2nn(-c3cccc(Cl)c3)c3c2CN(c2ccc4c(c2)CN(CCO)CC4)C3=O)nn1C [Example 4001, 1-(3-Chlorophenyl)-N-[(1,5-dimethylpyrazol-3-yl)methyl]-5-[2-(2-hydroxyethyl)-3,4-dihydro-1H-isoquinolin-7-yl]-6-oxo-4H-pyrrolo[3,4-c]pyrazole-3-carboxamide] | 3 to 10 | > 40 |
| CCN1CCc2ccc(N3CCc4c(C(=O)NCc5cc(C6CC6)n[nH]5)nn(-c5cccc(Cl)c5)c4C3=O)cc2C1 [Example 1150, 1-(3-chlorophenyl)-N-((3-cyclopropyl-1H-pyrazol-5-yl)methyl)-6-(2-ethyl-1,2,3,4-tetrahydroisoquinolin-7-yl)-7-oxo-4,5,6,7-tetrahydro-1H-pyrazolo[3,4-c]pyridine-3-carboxamide] | 0.01 to 0.1 | 3 to 10 |
| O=C(NCC1CC1)c1nn(-c2cccc(Cl)c2)c2c1CCN(c1ccc3c(c1)C(=O)N(CCO)CC3)C2=O [Example 1216, 1-(3-chlorophenyl)-N-(cyclopropylmethyl)-6-(2-(2-hydroxyethyl)-1-oxo-1,2,3,4-tetrahydroisoquinolin-7-yl)-7-oxo-4,5,6,7-tetrahydro-1H-pyrazolo[3,4-c]pyridine-3-carboxamide] | 0.1 to 0.3 | > 40 |
| CCN1CCc2ccc(N3CCc4c(C(=O)NCC5CC5)nn(-c5cccc(Cl)c5)c4C3=O)cc2C1 [Example 1031, 1-(3-chlorophenyl)-N-(cyclopropylmethyl)-6-(2-ethyl-1,2,3,4-tetrahydroisoquinolin-7-yl)-7-oxo-4,5,6,7-tetrahydro-1H-pyrazolo[3,4-c]pyridine-3-carboxamide] | 0.1 to 0.3 | 10 to 40 |
| Cc1ncccc1CNC(=O)c1nn(-c2cccc(Cl)c2)c2c1CCN(c1ccc3c(c1)C(=O)N(C)CC3)C2=O [Example 1309, 1-(3-chlorophenyl)-6-(2-methyl-1-oxo-1,2,3,4-tetrahydroisoquinolin-7-yl)-N-((2-methylpyridin-3-yl)methyl)-7-oxo-4,5,6,7-tetrahydro-1H-pyrazolo[3,4-c]pyridine-3-carboxamide] | 0.1 to 0.3 | > 40 |
| O=C(NCc1cccnn1)c1nn(-c2cccc(Cl)c2)c2c1CCN(c1ccc3c(c1)CN(CCO)CC3)C2=O [Example 1204, 1-(3-chlorophenyl)-6-(2-(2-hydroxyethyl)-1,2,3,4-tetrahydroisoquinolin-7-yl)-7-oxo-N-(pyridazin-3-ylmethyl)-4,5,6,7-tetrahydro-1H-pyrazolo[3,4-c]pyridine-3-carboxamide] | 0.1 to 0.3 | > 40 |
| CCNC(=O)c1nn(-c2cccc(Cl)c2)c2c1CCN(c1cccc(N3C(=O)CC[C@H]3C)c1)C2=O [Example 1397, (R)-1-(3-chlorophenyl)-N-ethyl-6-(3-(2-methyl-5-oxopyrrolidin-1-yl)phenyl)-7-oxo-4,5,6,7-tetrahydro-1H-pyrazolo[3,4-c]pyridine-3-carboxamide] | 10 to 40 | > 40 |
| Cc1ccncc1CNC(=O)c1nn(-c2cccc(Cl)c2)c2c1CCN(c1cccc(N3CCCCC3=O)c1)C2=O [Example 1287, 1-(3-chlorophenyl)-N-((4-methylpyridin-3-yl)methyl)-7-oxo-6-(3-(2-oxopiperidin-1-yl)phenyl)-4,5,6,7-tetrahydro-1H-pyrazolo[3,4-c]pyridine-3-carboxamide] | 0.3 to 1 | 10 to 40 |
| Cc1nnc(CNC(=O)c2nn(-c3cccc(Cl)c3)c3c2CCN(c2ccc4c(c2)C(=O)N(C)CC4)C3=O)s1 [Example 1181, 1-(3-chlorophenyl)-N-((5-methyl-1,3,4-thiadiazol-2-yl)methyl)-6-(2-methyl-1-oxo-1,2,3,4-tetrahydroisoquinolin-7-yl)-7-oxo-4,5,6,7-tetrahydro-1H-pyrazolo[3,4-c]pyridine-3-carboxamide] | 0.3 to 1 | > 40 |
| Cc1cc(CNC(=O)c2nn(-c3cccc(Cl)c3)c3c2CCN(c2ccc4c(c2)C(=O)N(CC(F)F)CCO4)C3=O)n[nH]1 [Example 1382, 1-(3-chlorophenyl)-6-(4-(2,2-difluoroethyl)-5-oxo-2,3,4,5-tetrahydrobenzo[f][1,4]oxazepin-7-yl)-N-((5-methyl-1H-pyrazol-3-yl)methyl)-7-oxo-4,5,6,7-tetrahydro-1H-pyrazolo[3,4-c]pyridine-3-carboxamide] | 0.01 to 0.1 | 3 to 10 |
| CCNC(=O)c1nn(-c2cc(Cl)ccc2C)c2c1CCN(c1ccc3c(c1)C(=O)N(C)CC3)C2=O [Example 2029, 1-(5-chloro-2-methylphenyl)-N-ethyl-6-(2-methyl-1-oxo-1,2,3,4-tetrahydroisoquinolin-7-yl)-7-oxo-4,5,6,7-tetrahydro-1H-pyrazolo[3,4-c]pyridine-3-carboxamide] | 10 to 40 | > 40 |
| Cc1cc(CNC(=O)c2nn(-c3cccc(Cl)c3)c3c2CCN(c2ccc4c(c2)C(=O)N(C)[C@H](CO)CO4)C3=O)nn1C [Example 1351, (R)-1-(3-chlorophenyl)-N-((1,5-dimethyl-1H-pyrazol-3-yl)methyl)-6-(3-(hydroxymethyl)-4-methyl-5-oxo-2,3,4,5-tetrahydrobenzo[f][1,4]oxazepin-7-yl)-7-oxo-4,5,6,7-tetrahydro-1H-pyrazolo[3,4-c]pyridine-3-carboxamide] | 3 to 10 | > 40 |
| COc1cncc(CNC(=O)c2nn(-c3cccc(Cl)c3)c3c2CCN(c2ccc4c(c2)C(=O)N(C)CC4)C3=O)c1 [Example 1213, 1-(3-chlorophenyl)-N-((5-methoxypyridin-3-yl)methyl)-6-(2-methyl-1-oxo-1,2,3,4-tetrahydroisoquinolin-7-yl)-7-oxo-4,5,6,7-tetrahydro-1H-pyrazolo[3,4-c]pyridine-3-carboxamide] | 0.1 to 0.3 | 3 to 10 |
| Cc1cc(CNC(=O)c2nn(-c3cccc(Cl)c3)c3c2CCN(c2ccc4c(c2)C(=O)N(C)CC4)C3=O)n(C)n1 [Example 1264, 1-(3-chlorophenyl)-N-((1,3-dimethyl-1H-pyrazol-5-yl)methyl)-6-(2-methyl-1-oxo-1,2,3,4-tetrahydroisoquinolin-7-yl)-7-oxo-4,5,6,7-tetrahydro-1H-pyrazolo[3,4-c]pyridine-3-carboxamide] | 0.3 to 1 | 10 to 40 |
